This test concerns the target Reverse transcriptase/RNaseH (Human immunodeficiency virus 1, UniProt Q72547). Description: Inhibitory concentration against HIV-1 reverse transcriptase.

This is an account of results in BindingDB's records for doi:10.1021/jm970110p (Universit&#233, 1998).

For the compound `CCc1c(Cc2ccccc2)[n]([Au])c(=O)[nH]c1=O` [6-Benzyl-5-ethyl-1-aurus-1H-pyrimidine-2,4-dione], the EC50 came out at 210 nM.
In turn, `CC(C)c1c(Cc2ccccc2)[n]([Au])c(=O)[nH]c1=O` [6-Benzyl-5-isopropyl-1-aurus-1H-pyrimidine-2,4-dione] registered an EC50 of 42 nM.

By EC50 is commonly meant the midpoint of the concentration-response curve. Low readings indicate greater potency, high ones weaker potency.
